According to patent US20240116922A1, “IMIDAZO[1,2-A]PYRIDINE DERIVATIVES AS IRAK4 INHIBITORS AND THEIR USE IN THE TREATMENT OF DISEASE” (BIOGEN MA INC., priority 2020, published 2024):
≈ marks a conversion by molar mass, not a printed value. Counter-ions that a name gives are not always drawn.

Key:
[1] = Kpuu assay (in vivo brain-to-plasma unbound partition); conditions: brain (unbound) versus plasma (unbound); intravenous infusion 4 to 24 h; unbound brain/plasma ratio; read-out: Brain Kpu, u
Method: For the brain-to-plasma partition coefficient (Kp) evaluation, a dosing solution was intravenously infused into animals at a constant flow rate for 4 to 24 h. Blood samples were serially collected during infusion, and CSF and brain samples were harvested at the end of infusion.
Tissue samples were typically homogenized in phosphate buffer saline (PBS) using a bead ruptor.
CSF samples were typically diluted with 8% BSA in PBS to prevent from non-specific binding. Artificial CSF (aCSF) is used as the surrogate matrix.
Calibration curves were prepared by spiking the analyte(s) into blank matrices, which were processed together with plasma, tissue homogenate and/or CSF samples by protein precipitation using a proper organic solvent (e.g. acetonitrile and methanol) containing generic analogue internal standards (e.g. verapamil, chrysin and glyburide). Matrix matching was used when analyzing multiple matrices in the same run. Samples above the upper limit of quantitation (ULOQ) needed to be diluted into the calibration range using either a pre-extraction or post-extraction dilution approach.
Processed samples were analyzed by LC-MS/MS using a proper method performing within the acceptable sensitivity, selectivity, precision and accuracy. For an analytical run to be accepted, over 75% of the calibration standards in the dual calibration curves needed to be within 20% of the nominal concentrations.
Brain concentrations were compared against plasma concentrations at the corresponding timepoint for the calculation of partition coefficient (Kp).
Unbound drug partition coefficient (Kpuu), defined as the ratio of unbound drug partition across the blood-brain barrier, was calculated using the equation below:
[formula] • Cb: measured total drug concentration in brain • Fub: unbound drug fraction in brain • Cp: measured total drug concentration in plasma • Fup: unbound drug fraction in plasma
The unbound fraction of the test compound was determined based on the protocols described below.
% Free=(PAR of buffer side/PAR of plasma side)*100 • PAR—Peak area ratio (PAR) • Fu % Free. 100 • Fu=fraction unbound

[2] = Kinetic solubility assay (CLND), pH 6.8; assay type: physicochemical; conditions: aqueous buffer, kinetic from dmso stock; potassium phosphate buffer pH 6.8, 2% DMSO, 24 hours at ambient temperature
MDR1 = MDR1 (Homo sapiens (Human), UniProt P08183); assay: in vitro; conditions: MDCK-MDR1
MDR1, sequence (P08183 whole entry): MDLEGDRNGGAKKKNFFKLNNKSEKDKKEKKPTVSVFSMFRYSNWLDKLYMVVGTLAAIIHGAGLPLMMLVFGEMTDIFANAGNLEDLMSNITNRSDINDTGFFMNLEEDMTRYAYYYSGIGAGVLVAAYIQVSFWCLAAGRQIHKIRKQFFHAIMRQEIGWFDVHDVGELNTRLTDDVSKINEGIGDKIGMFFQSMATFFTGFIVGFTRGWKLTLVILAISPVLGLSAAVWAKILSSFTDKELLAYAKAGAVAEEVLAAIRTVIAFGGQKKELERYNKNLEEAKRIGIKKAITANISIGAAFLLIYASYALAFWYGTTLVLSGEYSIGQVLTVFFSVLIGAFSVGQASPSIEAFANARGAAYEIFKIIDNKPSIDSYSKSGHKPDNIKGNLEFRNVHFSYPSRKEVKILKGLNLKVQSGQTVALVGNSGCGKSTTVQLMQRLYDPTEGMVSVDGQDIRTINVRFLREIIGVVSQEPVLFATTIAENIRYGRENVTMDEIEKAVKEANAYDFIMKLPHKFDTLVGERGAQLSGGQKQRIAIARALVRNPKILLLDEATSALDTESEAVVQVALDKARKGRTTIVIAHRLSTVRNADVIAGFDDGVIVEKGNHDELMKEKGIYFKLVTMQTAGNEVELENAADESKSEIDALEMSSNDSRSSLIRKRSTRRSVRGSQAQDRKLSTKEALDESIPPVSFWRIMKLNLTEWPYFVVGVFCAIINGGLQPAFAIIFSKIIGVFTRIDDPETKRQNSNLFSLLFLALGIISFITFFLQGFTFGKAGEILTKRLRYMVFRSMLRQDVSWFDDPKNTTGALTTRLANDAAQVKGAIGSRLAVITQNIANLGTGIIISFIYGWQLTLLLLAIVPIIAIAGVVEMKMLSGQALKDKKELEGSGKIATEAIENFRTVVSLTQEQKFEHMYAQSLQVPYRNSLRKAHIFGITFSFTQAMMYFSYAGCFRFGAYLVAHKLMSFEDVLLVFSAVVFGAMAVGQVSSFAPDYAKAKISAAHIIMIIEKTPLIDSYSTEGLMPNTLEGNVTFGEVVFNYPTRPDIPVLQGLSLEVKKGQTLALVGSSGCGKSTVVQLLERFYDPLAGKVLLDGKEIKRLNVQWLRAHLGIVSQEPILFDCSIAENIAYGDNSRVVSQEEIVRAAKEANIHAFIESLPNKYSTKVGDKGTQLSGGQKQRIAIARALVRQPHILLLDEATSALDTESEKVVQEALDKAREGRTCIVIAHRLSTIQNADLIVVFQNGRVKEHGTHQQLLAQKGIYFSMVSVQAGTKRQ

IRAK4 = IRAK4 (Homo sapiens (Human), UniProt Q9NWZ3); assay: IRAK4 MSD biochemical assay (2-hour 1 mM ATP); conditions: 0.1 nM IRAK4, 1 mM ATP, 2 hour at room temperature
IRAK4, sequence (Q9NWZ3 whole entry): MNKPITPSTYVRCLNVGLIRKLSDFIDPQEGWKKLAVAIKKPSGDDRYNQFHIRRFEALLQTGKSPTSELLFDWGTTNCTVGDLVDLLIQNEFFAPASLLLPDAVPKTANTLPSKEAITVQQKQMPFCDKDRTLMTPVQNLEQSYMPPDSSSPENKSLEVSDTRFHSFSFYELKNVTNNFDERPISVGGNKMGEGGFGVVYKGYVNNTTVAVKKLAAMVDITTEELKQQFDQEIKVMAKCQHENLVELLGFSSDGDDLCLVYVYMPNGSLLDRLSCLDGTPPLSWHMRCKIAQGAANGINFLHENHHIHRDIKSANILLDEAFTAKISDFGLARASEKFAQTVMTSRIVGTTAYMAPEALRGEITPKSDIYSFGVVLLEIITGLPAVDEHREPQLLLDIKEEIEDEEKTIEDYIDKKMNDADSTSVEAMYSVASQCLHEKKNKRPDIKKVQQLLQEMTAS
Method: The 2-hour 1 mM ATP Biochemical Assay employed a MesoScale Detection (MSD) format.
The activity was quenched with 11 μl of 70 mM EDTA, pH 8.
To detect the phosphorylated biotinylated peptide substrate, 30 μl of the quenched reaction mixture was added to equivalent wells of a 384 well streptavidin coated MesoScale plate (Meso Scale Discovery #L21SA-1). After a 1 hour incubation of the plate for 1 hour at room temperature with gentle mixing, the plate wells were washed 3 times with 50 mM Tris, pH 7.5, 150 mM NaCl, 0.02% Tween-20.
A 25 μl volume of 1:500 anti-P-Threonine Rabbit polyclonal Antibody plus 1:500 Goat-anti-Rabbit Sulfo Tag Antibody (Meso Scale Discovery R32AB-1) in 50 mM Tris, pH 7.5, 150 mM NaCl, 0.02% Tween-20 plus 2% BSA was then added to each well. After a 1-hour incubation of the plate for 1 hour at room temperature with gentle mixing, the plate wells were washed, 3 times with 50 mM Tris, pH 7.5, 150 mM NaCl, 0.02% Tween-20.

CC(C)Oc1cc2nc([C@@]34CC[C@@](C)(C3)OC4)cn2cc1C(=O)Nc1cccn(C)c1=O (single isomer, unassigned) [Comparator 3D, reference compound]
Kpuu (unbound brain-to-plasma partition coefficient) [1]: 1.1
solubility kinetic at 24 h [2]: 49.3 µg/mL (≈ 113 µM)
efflux ratio at 120 min, 1 μM (MDR1): 3.1

CC(C)Oc1nc2nc([C@@]34CC[C@@](C)(C3)OC4)cn2cc1C(=O)Nc1cccc(C(F)F)n1 (single isomer, unassigned) [Comparator 4A, reference compound]
Kpuu (unbound brain-to-plasma partition coefficient) [1]: 0.4
solubility kinetic at 24 h [2]: 2 µg/mL (≈ 4.37 µM)
efflux ratio at 120 min, 1 μM (MDR1): 0.7

CC(C)Oc1nc2nc([C@@]34CC[C@@](C)(C3)OC4)cn2cc1C(=O)Nc1cccn(C2CC2)c1=O (single isomer, unassigned) [Example 12]
Kpuu (unbound brain-to-plasma partition coefficient) [1]: 0.33
solubility kinetic at 24 h [2]: 22.3 µg/mL (≈ 48.1 µM)

CC(C)Oc1nc2nc([C@@]34CC[C@@](CF)(C3)OC4)cn2cc1C(=O)Nc1cccn(C2CC2)c1=O (single isomer, unassigned) [Example 46]
Kpuu (unbound brain-to-plasma partition coefficient) [1]: 1.81
solubility kinetic at 24 h [2]: 9 µg/mL (≈ 18.7 µM)

CC(C)Oc1nc2nc([C@@H]3CCCOC3)cn2cc1C(=O)Nc1cccn(C2CC2)c1=O (single isomer, unassigned) [Example 108]
Kpuu (unbound brain-to-plasma partition coefficient) [1]: 0.52
efflux ratio at 120 min, 1 μM (MDR1): 4
IC50 (IRAK4): 0.1 nM

COC[C@]12CC[C@](c3cn4cc(C(=O)Nc5cccn([C@H]6C[C@H]6F)c5=O)c(OC(C)C)nc4n3)(CO1)C2 (single isomer, unassigned) [Example 130]
Kpuu (unbound brain-to-plasma partition coefficient) [1]: 0.08
solubility kinetic at 24 h [2]: 63.6 µg/mL (≈ 124 µM)

COC[C@@]12CC[C@@](c3cn4cc(C(=O)Nc5cccn([C@H]6C[C@H]6F)c5=O)c(OC(C)C)nc4n3)(CO1)C2 (single isomer, unassigned) [Example 132]
Kpuu (unbound brain-to-plasma partition coefficient) [1]: 0.14
solubility kinetic at 24 h [2]: 70.5 µg/mL (≈ 138 µM)

CC(C)Oc1cc2nc(C34COC(C)(C3)C4)cn2cc1C(=O)Nc1cccn([C@H]2C[C@@H]2F)c1=O (single isomer, unassigned) [Example 155]
Kpuu (unbound brain-to-plasma partition coefficient) [1]: 0.36
solubility kinetic at 24 h [2]: 35.8 µg/mL (≈ 76.7 µM)

CC(C)Oc1cc2nc(C34COC(C)(C3)C4)cn2cc1C(=O)Nc1cccc(C(F)F)n1 [Comparator 1A, N-(6-(difluoromethyl)pyridin-2-yl)-7-isopropoxy-2-(1-methyl-2-oxabicyclo[2.1.1]hexan-4-yl)imidazo[1,2-a]pyridine-6-carboxamide, reference compound]
Kpuu (unbound brain-to-plasma partition coefficient) [1]: 0.4
solubility kinetic at 24 h [2]: 2.1 µg/mL (≈ 4.75 µM)
efflux ratio at 120 min, 1 μM (MDR1): 0.9

CC(C)Oc1nc2nc(C34COC(C)(C3)C4)cn2cc1C(=O)Nc1cccc(C(F)F)n1 [Comparator 2A, N-(6-(difluoromethyl)pyridin-2-yl)-7-isopropoxy-2-(1-methyl-2-oxabicyclo[2.1.1]hexan-4-yl)imidazo[1,2-a]pyrimidine-6-carboxamide, reference compound]
Kpuu (unbound brain-to-plasma partition coefficient) [1]: 0.4
solubility kinetic at 24 h [2]: 2.4 µg/mL (≈ 5.41 µM)
efflux ratio at 120 min, 1 μM (MDR1): 1.1

Cc1cnc2c(NC(=O)c3cn4cc(C56COC(C)(C5)C6)nc4nc3OC(C)C)cnn2c1 [Comparator 2B, 7-isopropoxy-2-(1-methyl-2-oxabicyclo[2.1.1]hexan-4-yl)-N-(6-methylpyrazolo[1,5-a]pyrimidin-3-yl)imidazo[1,2-a]pyrimidine-6-carboxamide, reference compound]
Kpuu (unbound brain-to-plasma partition coefficient) [1]: 0.3

CC(C)Oc1cc2nc(C34CCC(C)(CC3)OC4)cn2cc1C(=O)Nc1ccn(C)n1 [Comparator 5C, 7-isopropoxy-N-(1-methyl-1H-pyrazol-3-yl)-2-(1-methyl-2-oxabicyclo[2.2.2]octan-4-yl)imidazo[1,2-a]pyridine-6-carboxamide, reference compound]
Kpuu (unbound brain-to-plasma partition coefficient) [1]: 0.4
solubility kinetic at 24 h [2]: 39.6 µg/mL (≈ 93.5 µM)
efflux ratio at 120 min, 1 μM (MDR1): 2.2

CC(C)Oc1cc2nc(C34CCC(C)(CC3)OC4)cn2cc1C(=O)Nc1cccn(C)c1=O [Comparator 5D, 7-isopropoxy-N-(1-methyl-2-oxo-1,2-dihydropyridin-3-yl)-2-(1-methyl-2-oxabicyclo[2.2.2]octan-4-yl)imidazo[1,2-a]pyridine-6-carboxamide, reference compound]
Kpuu (unbound brain-to-plasma partition coefficient) [1]: 0.6
solubility kinetic at 24 h [2]: 45.6 µg/mL (≈ 101 µM)
efflux ratio at 120 min, 1 μM (MDR1): 2

CC(C)Oc1nc2nc(C34CCC(C)(CC3)OC4)cn2cc1C(=O)Nc1cccn(C)c1=O [Comparator 6D, 7-isopropoxy-N-(-methyl-2-oxo-1,2-dihydropyridin-3-yl)-2-(1-methyl-2-oxabicyclo[2.2.2]octan-4-yl)imidazo[1,2-a]pyrimidine-6-carboxamide, reference compound]
Kpuu (unbound brain-to-plasma partition coefficient) [1]: 0.4
solubility kinetic at 24 h [2]: 11.2 µg/mL (≈ 24.8 µM)
efflux ratio at 120 min, 1 μM (MDR1): 3

CC(C)Oc1nc2nc(C34COC(CF)(C3)C4)cn2cc1C(=O)Nc1cccn(C2CC2)c1=O [Example 10, N-(1-cyclopropyl-2-oxo-1,2-dihydropyridin-3-yl)-2-(1-(fluoromethyl)-2-oxabicyclo[2.1.1]hexan-4-yl)-7-isopropoxyimidazo[1,2-a]pyrimidine-6-carboxamide]
Kpuu (unbound brain-to-plasma partition coefficient) [1]: 0.22
solubility kinetic at 24 h [2]: 79.3 µg/mL (≈ 170 µM)

CC(C)Oc1nc2nc(C34COC(C)(C3)C4)cn2cc1C(=O)Nc1cccn(C2CC2)c1=O [Example 18, N-(1-cyclopropyl-2-oxo-1,2-dihydropyridin-3-yl)-7-isopropoxy-2-(1-methyl-2-oxabicyclo[2.1.1]hexan-4-yl)imidazo[1,2-a]pyrimidine-6-carboxamide]
Kpuu (unbound brain-to-plasma partition coefficient) [1]: 0.7

O=C(Nc1cccn(C2CC2)c1=O)c1cn2cc(C34COC(CF)(C3)C4)nc2nc1OC1CCC1 [Example 33, 7-cyclobutoxy-N-(1-cyclopropyl-2-oxo-1,2-dihydropyridin-3-yl)-2-(1-(fluoromethyl)-2-oxabicyclo[2.1.1]hexan-4-yl)imidazo[1,2-a]pyrimidine-6-carboxamide]
Kpuu (unbound brain-to-plasma partition coefficient) [1]: 0.45
solubility kinetic at 24 h [2]: 10.1 µg/mL (≈ 21.1 µM)

CC(C)Oc1nc2nc(C34COC(C)(C3)C4)cn2cc1C(=O)Nc1cccn([C@H]2C[C@H]2C)c1=O [Example 136, 7-isopropoxy-2-(1-methyl-2-oxabicyclo[2.1.1]hexan-4-yl)-N-(1-((1S,2R)-2-methylcyclopropyl)-2-oxo-1,2-dihydropyridin-3-yl)imidazo[1,2-a]pyrimidine-6-carboxamide]
Kpuu (unbound brain-to-plasma partition coefficient) [1]: 0.4

CC(C)Oc1nc2nc(C34COC(C)(C3)C4)cn2cc1C(=O)Nc1cccn([C@H]2C[C@H]2F)c1=O [Example 159, N-(1-((1S,2R)-2-fluorocyclopropyl)-2-oxo-1,2-dihydropyridin-3-yl)-7-isopropoxy-2-(1-methyl-2-oxabicyclo[2.1.1]hexan-4-yl)imidazo[1,2-a]pyrimidine-6-carboxamide]
Kpuu (unbound brain-to-plasma partition coefficient) [1]: 0.28

CC12CC(c3cn4cc(C(=O)Nc5cccn([C@H]6C[C@H]6F)c5=O)c(OC5CC5)cc4n3)(CO1)C2 [Example 175, 7-cyclopropoxy-N-(1-((1S,2R)-2-fluorocyclopropyl)-2-oxo-1,2-dihydropyridin-3-yl)-2-(1-methyl-2-oxabicyclo[2.1.1]hexan-4-yl)imidazo[1,2-a]pyridine-6-carboxamide]
solubility kinetic at 24 h [2]: 43 µg/mL (≈ 92.6 µM)
efflux ratio at 120 min, 1 μM (MDR1): 8.9
IC50 (IRAK4): 0.2 nM

CC(C)Oc1cc2nc([C@@]34CC[C@@](C)(C3)OC4)cn2cc1C(=O)Nc1cccn([C@H]2C[C@H]2C)c1=O [Example 182, 7-isopropoxy-2-((1S,4R)-1-methyl-2-oxabicyclo[2.2.1]heptan-4-yl)-N-(1-((1S,2R)-2-methylcyclopropyl)-2-oxo-1,2-dihydropyridin-3-yl)imidazo[1,2-a]pyridine-6-carboxamide trifluoroacetate]
solubility kinetic at 24 h [2]: 31.8 µg/mL
efflux ratio at 120 min, 1 μM (MDR1): 3.9
IC50 (IRAK4): 0.2 nM

C[C@H](Oc1cc2nc(C34COC(C)(C3)C4)cn2cc1C(=O)Nc1cccn(C2C[C@H]2F)c1=O)C(F)F (stereo partly drawn) [Example 184, 7-(((S)-1,1-difluoropropan-2-yl)oxy)-N-(1-((1S,2R)-2-fluorocyclopropyl)-2-oxo-1,2-dihydropyridin-3-yl)-2-(1-methyl-2-oxabicyclo[2.1.1]hexan-4-yl)imidazo[1,2-a]pyridine-6-carboxamide]
solubility kinetic at 24 h [2]: 73.4 µg/mL (≈ 146 µM)
efflux ratio at 120 min, 1 μM (MDR1): 19.2
IC50 (IRAK4): 0.2 nM

C[C@@H](Oc1cc2nc(C34COC(C)(C3)C4)cn2cc1C(=O)Nc1cccn(C2C[C@H]2F)c1=O)C(F)F (stereo partly drawn) [Example 185]
solubility kinetic at 24 h [2]: 73.2 µg/mL (≈ 146 µM)
efflux ratio at 120 min, 1 μM (MDR1): 21.8
IC50 (IRAK4): 0.1 nM

C[C@@H]1C[C@@H]1n1cccc(NC(=O)c2cn3cc(C45COC(C)(C4)C5)nc3nc2OC2CCC2)c1=O [Example 188, 7-cyclobutoxy-2-(1-methyl-2-oxabicyclo[2.1.1]hexan-4-yl)-N-(1-((1S,2R)-2-methylcyclopropyl)-2-oxo-1,2-dihydropyridin-3-yl)imidazo[1,2-a]pyrimidine-6-carboxamide trifluoroacetate]
solubility kinetic at 24 h [2]: 49.7 µg/mL
efflux ratio at 120 min, 1 μM (MDR1): 4.4
IC50 (IRAK4): 0.8 nM

C[C@@H]1C[C@@H]1n1cccc(NC(=O)c2cn3cc(C45COC(C)(C4)C5)nc3cc2OC2CCC2)c1=O [Example 190, 7-cyclobutoxy-2-(1-methyl-2-oxabicyclo[2.1.1]hexan-4-yl)-N-(1-((1S,2R)-2-methylcyclopropyl)-2-oxo-1,2-dihydropyridin-3-yl)imidazo[1,2-a]pyridine-6-carboxamide trifluoroacetate]
solubility kinetic at 24 h [2]: 54.2 µg/mL
efflux ratio at 120 min, 1 μM (MDR1): 4.1
IC50 (IRAK4): 0.9 nM
